Laboratory results from ChEMBL document CHEMBL3091363, “Discovery of N-{5-[3-(3-hydroxypiperidin-1-yl)-1,2,4-oxadiazol-5-yl]-4-methyl-1,3-thiazol-2-yl}acetamide (TASP0415914) as an orally potent phosphoinositide 3-kinase γ inhibitor for the treatment of inflammatory diseases” (Bioorg Med Chem, 2013).
pIC50: −log10 of the molar value.

Assays:
[1] = biological target: Phosphatidylinositol 4,5-bisphosphate 3-kinase catalytic subunit gamma isoform (Homo sapiens, UniProt P48736); assay: Inhibition of human PI3Kgamma using PtdIns/PtdSer as substrate after 2 hrs by scintillation counting analysis in presence of gamma[33P]ATP
Chain of Phosphatidylinositol 4,5-bisphosphate 3-kinase catalytic subunit gamma isoform (Homo sapiens, UniProt P48736) (P48736 whole entry, canonical isoform): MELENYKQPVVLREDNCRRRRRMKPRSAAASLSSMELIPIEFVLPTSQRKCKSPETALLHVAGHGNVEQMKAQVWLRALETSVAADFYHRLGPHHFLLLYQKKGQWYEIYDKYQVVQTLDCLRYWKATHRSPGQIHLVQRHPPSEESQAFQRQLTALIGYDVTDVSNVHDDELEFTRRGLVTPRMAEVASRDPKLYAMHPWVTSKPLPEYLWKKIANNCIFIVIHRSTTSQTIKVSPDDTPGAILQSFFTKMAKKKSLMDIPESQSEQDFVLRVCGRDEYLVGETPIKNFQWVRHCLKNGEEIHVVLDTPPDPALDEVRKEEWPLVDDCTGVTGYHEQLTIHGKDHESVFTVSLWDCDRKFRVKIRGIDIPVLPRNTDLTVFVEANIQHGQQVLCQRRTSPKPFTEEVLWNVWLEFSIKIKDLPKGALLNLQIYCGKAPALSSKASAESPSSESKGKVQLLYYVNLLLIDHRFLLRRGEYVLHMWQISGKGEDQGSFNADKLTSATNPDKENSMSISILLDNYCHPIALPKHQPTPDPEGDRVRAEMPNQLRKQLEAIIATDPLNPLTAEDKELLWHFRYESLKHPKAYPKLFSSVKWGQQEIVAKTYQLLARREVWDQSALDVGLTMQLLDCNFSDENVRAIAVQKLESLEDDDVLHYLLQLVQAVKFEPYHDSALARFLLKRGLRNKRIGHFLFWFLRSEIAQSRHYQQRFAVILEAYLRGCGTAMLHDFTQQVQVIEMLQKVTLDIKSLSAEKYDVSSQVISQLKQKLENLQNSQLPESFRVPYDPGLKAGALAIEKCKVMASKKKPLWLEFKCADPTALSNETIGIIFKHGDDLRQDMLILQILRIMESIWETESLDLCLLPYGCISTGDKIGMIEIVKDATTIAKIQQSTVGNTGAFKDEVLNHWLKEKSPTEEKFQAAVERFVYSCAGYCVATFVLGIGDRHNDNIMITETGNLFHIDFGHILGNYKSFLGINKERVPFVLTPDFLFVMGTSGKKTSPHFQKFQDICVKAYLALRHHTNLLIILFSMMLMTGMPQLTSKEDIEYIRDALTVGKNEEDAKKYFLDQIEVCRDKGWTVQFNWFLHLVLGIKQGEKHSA

[2] = Metabolic stability in human liver microsomes assessed as compound remaining at 5 uM after 15 mins by LC-MS/MS analysis; format: ADME; details: read-out: Stability
[3] = AUC (0 to 8 hrs) in Sprague-Dawley rat at 30 mg/kg, po; format: ADME, organism-based; set-up: time < 8 hr, dose 30 mg/kg, route oral; details: plasma
[4] = Cmax in Sprague-Dawley rat at 30 mg/kg, po; format: ADME, organism-based; set-up: dose 30 mg/kg, route oral; details: in vivo
[5] = Metabolic stability in rat liver microsomes assessed as compound remaining at 5 uM after 15 mins by LC-MS/MS analysis; format: ADME; details: read-out: Stability
[6] = Metabolic stability in human hepatocytes assessed as compound remaining at 5 uM after 1 hr by LC-MS/MS analysis; format: ADME, cell-based, Hepatocyte; details: read-out: Stability
[7] = Metabolic stability in rat hepatocytes assessed as compound remaining at 5 uM after 1 hr by LC-MS/MS analysis; format: ADME, cell-based, Hepatocyte; details: read-out: Stability
[8] = biological target: Phosphatidylinositol 4,5-bisphosphate 3-kinase catalytic subunit gamma isoform (Mus musculus, UniProt Q9JHG7); assay: Inhibition of PI3Kgamma in mouse RAW264.7 cells assessed as C5a-mediated PKB/Akt phosphorylation preincubated for 30 mins followed by C5a stimulation measured after 5 mins; format: cell-based
Chain of Phosphatidylinositol 4,5-bisphosphate 3-kinase catalytic subunit gamma isoform (Mus musculus, UniProt Q9JHG7) (Q9JHG7 whole entry, canonical isoform): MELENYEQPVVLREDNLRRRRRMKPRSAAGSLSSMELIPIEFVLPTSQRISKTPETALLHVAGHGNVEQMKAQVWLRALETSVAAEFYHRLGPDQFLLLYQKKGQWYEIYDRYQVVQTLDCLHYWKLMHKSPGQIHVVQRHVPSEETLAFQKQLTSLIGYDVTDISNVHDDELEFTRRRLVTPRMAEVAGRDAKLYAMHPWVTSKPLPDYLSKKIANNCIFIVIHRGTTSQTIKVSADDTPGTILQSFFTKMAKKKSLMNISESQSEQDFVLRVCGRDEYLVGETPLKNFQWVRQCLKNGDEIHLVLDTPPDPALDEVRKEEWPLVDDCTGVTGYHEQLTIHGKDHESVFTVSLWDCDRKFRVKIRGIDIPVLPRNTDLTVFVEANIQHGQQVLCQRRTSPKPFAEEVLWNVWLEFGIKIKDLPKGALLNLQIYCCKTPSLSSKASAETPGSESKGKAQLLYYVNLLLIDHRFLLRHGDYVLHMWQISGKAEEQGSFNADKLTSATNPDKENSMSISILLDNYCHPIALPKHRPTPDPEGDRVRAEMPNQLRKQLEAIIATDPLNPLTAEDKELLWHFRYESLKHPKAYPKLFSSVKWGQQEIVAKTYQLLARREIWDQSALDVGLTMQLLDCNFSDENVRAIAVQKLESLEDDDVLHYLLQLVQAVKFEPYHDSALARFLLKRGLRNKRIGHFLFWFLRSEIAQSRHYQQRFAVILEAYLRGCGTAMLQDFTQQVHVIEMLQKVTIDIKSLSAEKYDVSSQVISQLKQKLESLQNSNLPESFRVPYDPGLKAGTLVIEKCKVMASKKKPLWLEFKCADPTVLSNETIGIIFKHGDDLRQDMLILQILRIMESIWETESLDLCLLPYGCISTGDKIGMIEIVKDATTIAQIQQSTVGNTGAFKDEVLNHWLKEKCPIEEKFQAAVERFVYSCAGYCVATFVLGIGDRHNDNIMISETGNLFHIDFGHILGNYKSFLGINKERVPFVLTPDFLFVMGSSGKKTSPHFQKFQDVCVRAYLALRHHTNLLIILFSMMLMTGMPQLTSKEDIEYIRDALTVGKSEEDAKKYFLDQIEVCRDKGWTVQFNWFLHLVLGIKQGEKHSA

Salmonella typhimurium [9] = assay: Mutagenicity in Salmonella typhimurium TA98 up to 5000 ug/ml by Ames test in presence of rat S9 fraction; format: toxicity, organism-based; details: salmonella enterica subsp. enterica serovar typhimurium
Escherichia coli [10] = assay: Mutagenicity in Escherichia coli WP2uvrA up to 5000 ug/ml by Ames test in absence of rat S9 fraction; format: toxicity, organism-based
Salmonella typhimurium [11] = assay: Mutagenicity in Salmonella typhimurium TA98 up to 5000 ug/ml by Ames test in absence of rat S9 fraction; format: toxicity, organism-based; details: salmonella enterica subsp. enterica serovar typhimurium
Salmonella typhimurium [12] = assay: Mutagenicity in Salmonella typhimurium TA100 up to 2000 ug/ml by Ames fluctuation test; format: toxicity, organism-based; details: salmonella enterica subsp. enterica serovar typhimurium
Escherichia coli [13] = assay: Mutagenicity in Escherichia coli WP2uvrA up to 5000 ug/ml by Ames test in presence of rat S9 fraction; format: toxicity, organism-based
Salmonella typhimurium [14] = assay: Mutagenicity in Salmonella typhimurium TA100 up to 5000 ug/ml by Ames test in presence of rat S9 fraction; format: toxicity, organism-based; details: salmonella enterica subsp. enterica serovar typhimurium
Salmonella typhimurium [15] = assay: Mutagenicity in Salmonella typhimurium TA100 up to 5000 ug/ml by Ames test in absence of rat S9 fraction; format: toxicity, organism-based; details: salmonella enterica subsp. enterica serovar typhimurium
Salmonella typhimurium [16] = assay: Mutagenicity in Salmonella typhimurium TA98 up to 2000 ug/ml by Ames fluctuation test; format: toxicity, organism-based; details: salmonella enterica subsp. enterica serovar typhimurium
Cytochrome P450 3A4 = Cytochrome P450 3A4 (Homo sapiens, UniProt P08684); assay: Inhibition of CYP3A4 (unknown origin) up to 10 uM; format: ADME
Chain of Cytochrome P450 3A4 (P08684 whole entry): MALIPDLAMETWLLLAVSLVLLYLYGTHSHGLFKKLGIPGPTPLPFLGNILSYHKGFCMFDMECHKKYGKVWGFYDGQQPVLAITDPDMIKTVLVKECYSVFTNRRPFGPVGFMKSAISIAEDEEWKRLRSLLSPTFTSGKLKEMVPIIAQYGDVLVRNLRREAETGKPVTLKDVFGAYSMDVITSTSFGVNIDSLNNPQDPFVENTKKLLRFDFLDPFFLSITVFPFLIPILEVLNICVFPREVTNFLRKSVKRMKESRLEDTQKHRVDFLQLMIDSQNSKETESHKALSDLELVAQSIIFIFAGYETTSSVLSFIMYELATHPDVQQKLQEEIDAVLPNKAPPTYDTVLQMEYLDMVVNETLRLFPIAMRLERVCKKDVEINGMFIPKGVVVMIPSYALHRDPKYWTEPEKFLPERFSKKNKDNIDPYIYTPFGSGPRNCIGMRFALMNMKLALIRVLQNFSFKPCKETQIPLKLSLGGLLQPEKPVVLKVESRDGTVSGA

Cytochrome P450 2C9 = Cytochrome P450 2C9 (Homo sapiens, UniProt P11712); assay: Inhibition of CYP2C9 (unknown origin) up to 10 uM; format: ADME
Chain of Cytochrome P450 2C9 (P11712 whole entry): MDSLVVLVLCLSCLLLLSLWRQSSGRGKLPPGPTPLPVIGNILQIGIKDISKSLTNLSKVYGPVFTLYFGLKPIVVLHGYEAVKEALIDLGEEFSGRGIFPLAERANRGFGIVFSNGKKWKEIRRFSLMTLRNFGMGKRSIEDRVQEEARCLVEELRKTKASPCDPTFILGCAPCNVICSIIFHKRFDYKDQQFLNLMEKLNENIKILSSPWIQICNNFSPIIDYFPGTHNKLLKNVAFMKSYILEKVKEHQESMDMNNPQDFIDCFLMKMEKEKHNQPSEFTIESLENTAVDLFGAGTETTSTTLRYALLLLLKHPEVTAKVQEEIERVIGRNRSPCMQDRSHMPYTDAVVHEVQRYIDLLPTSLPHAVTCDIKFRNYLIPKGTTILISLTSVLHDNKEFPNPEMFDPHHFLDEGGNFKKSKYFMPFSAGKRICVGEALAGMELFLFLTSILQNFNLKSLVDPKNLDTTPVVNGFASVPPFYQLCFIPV

Cytochrome P450 2C19 = Cytochrome P450 2C19 (Homo sapiens, UniProt P33261); assay: Inhibition of CYP2C19 (unknown origin) up to 10 uM; format: ADME
Chain of Cytochrome P450 2C19 (P33261 whole entry): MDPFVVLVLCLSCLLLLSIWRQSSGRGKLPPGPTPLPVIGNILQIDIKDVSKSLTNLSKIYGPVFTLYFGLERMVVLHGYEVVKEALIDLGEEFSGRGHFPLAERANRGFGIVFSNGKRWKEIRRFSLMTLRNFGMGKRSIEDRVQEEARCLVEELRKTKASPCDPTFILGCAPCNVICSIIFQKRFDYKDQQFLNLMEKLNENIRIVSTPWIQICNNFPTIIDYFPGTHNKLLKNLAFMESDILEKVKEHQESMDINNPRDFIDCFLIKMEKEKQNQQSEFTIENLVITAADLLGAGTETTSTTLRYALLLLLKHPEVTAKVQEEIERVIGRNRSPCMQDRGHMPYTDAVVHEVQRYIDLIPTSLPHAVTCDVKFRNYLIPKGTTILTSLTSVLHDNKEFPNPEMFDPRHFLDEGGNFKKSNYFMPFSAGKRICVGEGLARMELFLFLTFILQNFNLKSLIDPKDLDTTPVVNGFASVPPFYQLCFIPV

Cytochrome P450 1A2 = biological target: T1, Cytochrome P450 1A2 (Homo sapiens, UniProt P05177); assay: Inhibition of CYP1A2 (unknown origin) up to 10 uM; format: ADME
T1 sequence (P05177 whole entry): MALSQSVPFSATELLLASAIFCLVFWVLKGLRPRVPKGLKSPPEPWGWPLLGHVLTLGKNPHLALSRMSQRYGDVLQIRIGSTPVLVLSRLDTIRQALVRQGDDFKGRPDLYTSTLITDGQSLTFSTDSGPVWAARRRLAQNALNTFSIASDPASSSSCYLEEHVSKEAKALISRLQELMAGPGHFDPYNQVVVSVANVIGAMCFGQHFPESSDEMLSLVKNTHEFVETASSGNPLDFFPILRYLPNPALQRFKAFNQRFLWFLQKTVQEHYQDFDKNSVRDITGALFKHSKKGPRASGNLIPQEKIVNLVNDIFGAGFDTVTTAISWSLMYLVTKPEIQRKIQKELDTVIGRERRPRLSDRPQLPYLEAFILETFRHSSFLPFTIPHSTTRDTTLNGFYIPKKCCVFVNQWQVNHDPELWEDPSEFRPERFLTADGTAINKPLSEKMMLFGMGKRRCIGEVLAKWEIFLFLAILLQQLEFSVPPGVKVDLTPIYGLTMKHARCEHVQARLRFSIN

Mus musculus = assay: Antiarthritic activity in po dosed DBA/1 mouse assessed as suppression of acute collagen-induced arthritis administered as bid for 14 days; format: functional, organism-based
Cytochrome P450 2D6 = Cytochrome P450 2D6 (Homo sapiens, UniProt P10635); assay: Inhibition of CYP2D6 (unknown origin) up to 10 uM; format: ADME
Chain of Cytochrome P450 2D6 (P10635 whole entry): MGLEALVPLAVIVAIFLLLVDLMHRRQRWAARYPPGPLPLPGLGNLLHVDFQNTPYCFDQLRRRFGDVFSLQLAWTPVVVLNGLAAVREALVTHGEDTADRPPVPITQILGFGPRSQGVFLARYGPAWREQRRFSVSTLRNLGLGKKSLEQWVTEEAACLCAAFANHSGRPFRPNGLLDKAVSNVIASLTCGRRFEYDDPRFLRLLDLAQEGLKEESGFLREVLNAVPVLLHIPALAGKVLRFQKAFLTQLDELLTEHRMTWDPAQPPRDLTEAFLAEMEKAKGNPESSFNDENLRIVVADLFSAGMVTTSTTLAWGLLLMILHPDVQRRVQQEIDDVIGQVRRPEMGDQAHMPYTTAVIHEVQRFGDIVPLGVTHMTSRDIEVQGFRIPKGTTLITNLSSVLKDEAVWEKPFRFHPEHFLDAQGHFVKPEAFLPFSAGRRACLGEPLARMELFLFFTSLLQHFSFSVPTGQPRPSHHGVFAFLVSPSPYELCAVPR

CC(=O)Nc1nc(C)c(-c2nc(CC(C)(C)C(C)O)no2)s1 (stereo not drawn)
pIC50 [1]: 7.77
remaining at 0.25 h, 5 µM [2]: 94.1%
AUC(0-t) at 8 h [3]: 10900 ng·h/mL
Cmax [4]: 7800 ng/mL
remaining at 0.25 h, 5 µM [5]: 91.5%
remaining at 1 h, 5 µM [6]: 35.2%
remaining at 1 h, 5 µM [7]: 20.9%
pIC50 [8]: 6.81

CC(=O)Nc1nc(C)c(-c2nc(N3CCOCC3)no2)s1
pIC50 [1]: 7.00

Cc1nc(N)sc1-c1cnc(C(C)(C)C)o1
pIC50 [1]: 7.09
Activity (Salmonella typhimurium [9]): Toxic
Activity (Escherichia coli [10]): Toxic
Activity (Salmonella typhimurium [11]): Toxic
Activity (Salmonella typhimurium [12]): Toxic
Activity (Escherichia coli [13]): Toxic
Activity (Salmonella typhimurium [14]): Toxic
Activity (Salmonella typhimurium [15]): Toxic
Activity (Salmonella typhimurium [16]): Toxic

CC(=O)Nc1nc(C)c(-c2nc(CCC(C)(C)O)no2)s1
pIC50 [1]: 6.69

CC(=O)Nc1nc(C)c(-c2nc(N3CCCC(O)C3)no2)s1 (stereo not drawn)
pIC50 [1]: 7.54
Activity (Salmonella typhimurium [9]): Non-toxic
Activity (Escherichia coli [10]): Non-toxic
inhibition (INH) (Cytochrome P450 3A4): Not Active
Activity (Salmonella typhimurium [11]): Non-toxic
Activity (Salmonella typhimurium [12]): Non-toxic
remaining at 0.25 h, 5 µM [2]: 96.9%
inhibition (INH) (Cytochrome P450 2C9): Not Active
inhibition (INH) (Cytochrome P450 2C19): Not Active
AUC(0-t) at 8 h [3]: 10800 ng·h/mL
Cmax [4]: 3920 ng/mL
remaining at 0.25 h, 5 µM [5]: 97.1%
inhibition (INH) (Cytochrome P450 1A2): Not Active
Activity (Escherichia coli [13]): Non-toxic
Activity (Mus musculus): Dose-dependent effect
Activity (Salmonella typhimurium [14]): Non-toxic
Activity (Salmonella typhimurium [15]): Non-toxic
remaining at 1 h, 5 µM [6]: 75.7%
Activity (Salmonella typhimurium [16]): Non-toxic
inhibition (INH) (Cytochrome P450 2D6): Not Active
remaining at 1 h, 5 µM [7]: 62.1%
pIC50 [8]: 6.53

CC(=O)Nc1nc(C)c(-c2nc(CC(C)(C)O)no2)s1
pIC50 [1]: 7.17

CC(=O)Nc1nc(C)c(-c2nc(C(C)(C)CCO)no2)s1
pIC50 [1]: 7.21

CC(=O)Nc1nc(C)c(-c2nc(CC(C)(C)CO)no2)s1
pIC50 [1]: 8.14
remaining at 0.25 h, 5 µM [2]: 102%
AUC(0-t) at 8 h [3]: 92 ng·h/mL
Cmax [4]: 38 ng/mL
remaining at 0.25 h, 5 µM [5]: 94%
remaining at 1 h, 5 µM [6]: 9.3%
remaining at 1 h, 5 µM [7]: 11.3%
pIC50 [8]: 6.72

CC(=O)Nc1nc(C)c(-c2nc(CCO)no2)s1
pIC50 [1]: 6.80

Cc1nc(N)sc1-c1nc(C(C)(C)C)no1
pIC50 [1]: 7.17
Activity (Salmonella typhimurium [9]): Non-toxic
Activity (Escherichia coli [10]): Non-toxic
Activity (Salmonella typhimurium [11]): Non-toxic
Activity (Salmonella typhimurium [12]): Non-toxic
Activity (Escherichia coli [13]): Non-toxic
Activity (Salmonella typhimurium [14]): Non-toxic
Activity (Salmonella typhimurium [15]): Non-toxic
Activity (Salmonella typhimurium [16]): Non-toxic

COCC(C)(C)Cc1noc(-c2sc(NC(C)=O)nc2C)n1
pIC50 [1]: 7.17

CC(=O)Nc1nc(C)c(-c2cnc(C(C)(C)C)o2)s1
Activity (Salmonella typhimurium [9]): Non-toxic
Activity (Escherichia coli [10]): Non-toxic
Activity (Salmonella typhimurium [11]): Non-toxic
Activity (Escherichia coli [13]): Non-toxic
Activity (Salmonella typhimurium [14]): Non-toxic
Activity (Salmonella typhimurium [15]): Non-toxic

Cc1nc(N)sc1-c1nc(N2CCCC(O)C2)no1 (stereo not drawn)
Activity (Salmonella typhimurium [9]): Non-toxic
Activity (Escherichia coli [10]): Non-toxic
Activity (Salmonella typhimurium [11]): Non-toxic
Activity (Salmonella typhimurium [12]): Non-toxic
Activity (Escherichia coli [13]): Non-toxic
Activity (Salmonella typhimurium [14]): Non-toxic
Activity (Salmonella typhimurium [15]): Non-toxic
Activity (Salmonella typhimurium [16]): Non-toxic

CC(=O)Nc1nc(C)c(-c2nc(C(C)(C)CO)no2)s1
pIC50 [1]: 7.28

CC(=O)Nc1nc(C)c(-c2nc(CC(F)(F)F)no2)s1
pIC50 [1]: 7.55
remaining at 0.25 h, 5 µM [2]: 79.1%
AUC(0-t) at 8 h [3]: 1180 ng·h/mL
Cmax [4]: 345 ng/mL
remaining at 0.25 h, 5 µM [5]: 72.9%
pIC50 [8]: 6.56

CC(=O)Nc1nc(C)c(-c2nc(C(C)(C)C)no2)s1
pIC50 [1]: 7.85
pIC50 [8]: 6.64

CC(=O)Nc1nc(C)c(-c2nc(CCCO)no2)s1
pIC50 [1]: 6.92

CC(=O)Nc1nc(C)c(-c2nc(C3CCOC3)no2)s1 (stereo not drawn)
pIC50 [1]: 7.24
pIC50 [8]: 6.25
